From patent US5370770A, “Method for deinking printed waste paper using soybean peroxidase” (priority 1992, dated 1994)

Experiments:
Soybean Peroxidase (SBP) = Soybean Peroxidase (SBP) (Glycine max, UniProt O22443); assay: Oxidation of methoxybenzene substrates by soybean peroxidase (redox potential comparison); assay type: biochemical; conditions: absorbance change at substrate λmax
Excerpt: (§1) Any of a variety of peroxidases can be used in the present invention.
(§2) *all values in Δ Abs/(mg enzymemin).
**curve of ΔAbs/time slopes upward as reaction proceeds.

[1] = target: T1, Horseradish Peroxidase (HRP) (Armoracia rusticana, UniProt P00433); assay: Oxidation of methoxybenzene substrates by horseradish peroxidase (redox potential comparison); assay type: biochemical; conditions: absorbance change at substrate λmax
T1 sequence (P00433 31-353): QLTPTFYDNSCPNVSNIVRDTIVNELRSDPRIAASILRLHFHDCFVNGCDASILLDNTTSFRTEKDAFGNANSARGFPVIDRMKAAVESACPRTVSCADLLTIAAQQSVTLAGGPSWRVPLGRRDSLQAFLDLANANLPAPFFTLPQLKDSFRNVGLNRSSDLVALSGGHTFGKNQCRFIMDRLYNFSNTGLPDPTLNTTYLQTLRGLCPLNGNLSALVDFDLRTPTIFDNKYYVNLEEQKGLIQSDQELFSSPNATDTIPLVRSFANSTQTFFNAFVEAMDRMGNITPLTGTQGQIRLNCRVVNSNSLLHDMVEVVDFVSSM
Excerpt: as §1, §2

[2] = Half-wave redox potential of substrates; assay type: physicochemical; conditions: redox potential of substrate

Sequence of Soybean Peroxidase (SBP) (O22443 27-332): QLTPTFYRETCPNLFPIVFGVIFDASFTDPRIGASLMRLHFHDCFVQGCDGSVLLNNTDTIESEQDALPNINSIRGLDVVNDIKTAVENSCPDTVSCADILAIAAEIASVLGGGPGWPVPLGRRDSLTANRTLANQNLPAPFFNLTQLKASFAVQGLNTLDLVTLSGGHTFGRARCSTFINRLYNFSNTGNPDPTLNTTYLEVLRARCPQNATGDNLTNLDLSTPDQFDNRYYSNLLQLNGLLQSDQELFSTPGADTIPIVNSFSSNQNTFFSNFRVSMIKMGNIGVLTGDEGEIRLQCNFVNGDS

| Compound | SBP (Soybean Peroxidase (SBP)) | HRP [1] | E1/2 (V) [2] [V] |
| --- | --- | --- | --- |
| COc1cc(OC)c(OC)c(OC)c1 [1,2,3,5-tetramethoxybenzene] | 3.02 Δ Abs/(mg enzymemin) | 0.30 Δ Abs/(mg enzymemin) | 1.09 |
| COc1ccc(OC)c(OC)c1 [1,2,4-trimethoxybenzene] | 9.23 Δ Abs/(mg enzymemin) | 1.64 Δ Abs/(mg enzymemin) | 1.12 |
| COc1ccc(OC)cc1 [1,4-dimethoxybenzene] | 0.072 Δ Abs/(mg enzymemin) | 0 Δ Abs/(mg enzymemin) | 1.34 |
| COc1c(OC)c(OC)c(OC)c(OC)c1OC [hexamethoxybenzene] | 0.22 Δ Abs/(mg enzymemin) | 0 Δ Abs/(mg enzymemin) | 1.24 |
| COc1cc(OC)c(OC)c(OC)c1OC [pentamethoxybenzene] | 8.76 Δ Abs/(mg enzymemin) | 2.50 Δ Abs/(mg enzymemin) | 1.07 |
